According to PubChem BioAssay (NCI):
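96-well plates; 48 h exposure; 5 concentrations. Endpoints by linear interpolation between flanking doses. Not reached: highest tested concentration assigned. TGI is the concentration that stops growth completely.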

How the values were obtained:
Assay in all cases: DTP human tumour cell line panel, 48 h
SNB-75 CNS = test system: SNB-75 CNS
U251 CNS = test system: U251 CNS
NCI/ADR-RES ovarian = test system: NCI/ADR-RES ovarian
SK-MEL-28 melanoma = test system: SK-MEL-28 melanoma
OVCAR-3 ovarian = test system: OVCAR-3 ovarian
EKVX NSCLC = test system: EKVX NSCLC
SF-539 CNS = test system: SF-539 CNS
M14 melanoma = test system: M14 melanoma
HCC-2998 colon = test system: HCC-2998 colon
OVCAR-8 ovarian = test system: OVCAR-8 ovarian
SK-MEL-2 melanoma = test system: SK-MEL-2 melanoma
TK-10 renal = test system: TK-10 renal
HL-60(TB) leukemia = test system: HL-60(TB) leukemia
UO-31 renal = test system: UO-31 renal
HCT-116 colon = test system: HCT-116 colon
MOLT-4 leukemia = test system: MOLT-4 leukemia
LOX IMVI melanoma = test system: LOX IMVI melanoma
SF-295 CNS = test system: SF-295 CNS
MALME-3M melanoma = test system: MALME-3M melanoma
RPMI-8226 leukemia = test system: RPMI-8226 leukemia
NCI-H23 lung = test system: NCI-H23 lung
NCI-H226 lung = test system: NCI-H226 lung
NCI-H522 lung = test system: NCI-H522 lung
OVCAR-4 ovarian = test system: OVCAR-4 ovarian
PC-3 prostate = test system: PC-3 prostate
SK-OV-3 ovarian = test system: SK-OV-3 ovarian
MDA-N = test system: MDA-N
SR leukemia = test system: SR leukemia
BT-549 breast = test system: BT-549 breast
COLO 205 colon = test system: COLO 205 colon
SN12C renal = test system: SN12C renal
HCT-15 colon = test system: HCT-15 colon
SNB-19 CNS = test system: SNB-19 CNS
IGROV1 ovarian = test system: IGROV1 ovarian
UACC-257 melanoma = test system: UACC-257 melanoma
OVCAR-5 ovarian = test system: OVCAR-5 ovarian
MCF7 breast = test system: MCF7 breast
MDA-MB-435 = test system: MDA-MB-435
HOP-62 NSCLC = test system: HOP-62 NSCLC
MDA-MB-231 breast = test system: MDA-MB-231 breast
RXF 393 renal = test system: RXF 393 renal
A498 renal = test system: A498 renal
SW-620 colon = test system: SW-620 colon
T-47D breast = test system: T-47D breast
HOP-92 NSCLC = test system: HOP-92 NSCLC
CAKI-1 renal = test system: CAKI-1 renal
HT29 colon = test system: HT29 colon
DU-145 prostate = test system: DU-145 prostate
SK-MEL-5 melanoma = test system: SK-MEL-5 melanoma
HS 578T breast = test system: HS 578T breast
786-0 renal = test system: 786-0 renal
A549 NSCLC = test system: A549 NSCLC
SF-268 CNS = test system: SF-268 CNS
K-562 leukemia = test system: K-562 leukemia
NCI-H460 lung = test system: NCI-H460 lung
KM12 colon = test system: KM12 colon
ACHN renal = test system: ACHN renal
CCRF-CEM leukemia = test system: CCRF-CEM leukemia
UACC-62 melanoma = test system: UACC-62 melanoma

COc1cc2c(cc1OCCCC(=O)Nc1cc(C(=O)NCCCN(C)C)n(C)n1)N=CC1CCCN1C2=O (stereo not given)
TGI (SNB-75 CNS): 22.3 µM | TGI (U251 CNS): > 20.7 µM | TGI (NCI/ADR-RES ovarian): > 74.4 µM | TGI (SK-MEL-28 melanoma): 11.1 µM | TGI (OVCAR-3 ovarian): 74.2 µM | TGI (EKVX NSCLC): > 62 µM | TGI (SF-539 CNS): 22.1 µM | TGI (M14 melanoma): > 27.6 µM | TGI (HCC-2998 colon): 28.3 µM | TGI (OVCAR-8 ovarian): > 24 µM | TGI (SK-MEL-2 melanoma): 32.7 µM | TGI (TK-10 renal): 14.9 µM | TGI (HL-60(TB) leukemia): 240 nM | TGI (UO-31 renal): 24.3 µM | TGI (HCT-116 colon): > 37.7 µM | TGI (MOLT-4 leukemia): 3.65 µM | TGI (LOX IMVI melanoma): > 21.2 µM | TGI (SF-295 CNS): > 100 µM | TGI (MALME-3M melanoma): 14.2 µM | TGI (RPMI-8226 leukemia): 17.6 µM | TGI (NCI-H23 lung): > 26.2 µM | TGI (NCI-H226 lung): > 38.2 µM | TGI (NCI-H522 lung): 15.1 µM | TGI (OVCAR-4 ovarian): 14.1 µM | TGI (PC-3 prostate): 50.4 µM | TGI (SK-OV-3 ovarian): > 62.3 µM | TGI (MDA-N): 73.2 µM | TGI (SR leukemia): 590 nM | TGI (BT-549 breast): 29.7 µM | TGI (COLO 205 colon): > 23 µM | TGI (SN12C renal): > 24.6 µM | TGI (HCT-15 colon): > 21.5 µM | TGI (SNB-19 CNS): > 37.4 µM | TGI (IGROV1 ovarian): > 23.5 µM | TGI (UACC-257 melanoma): 19.2 µM | TGI (OVCAR-5 ovarian): > 26.9 µM | TGI (MCF7 breast): > 80.7 µM | TGI (MDA-MB-435): > 100 µM | TGI (HOP-62 NSCLC): > 43.7 µM | TGI (MDA-MB-231 breast): > 39.9 µM | TGI (RXF 393 renal): > 75.6 µM | TGI (A498 renal): 12.4 µM | TGI (SW-620 colon): > 25 µM | TGI (T-47D breast): > 100 µM | TGI (HOP-92 NSCLC): 13.2 µM | TGI (CAKI-1 renal): 50.9 µM | TGI (HT29 colon): 18.2 µM | TGI (DU-145 prostate): > 41.6 µM | TGI (SK-MEL-5 melanoma): 14 µM | TGI (HS 578T breast): > 100 µM | TGI (786-0 renal): > 23.5 µM | TGI (A549 NSCLC): > 41.6 µM | TGI (SF-268 CNS): > 50.4 µM | TGI (K-562 leukemia): 3.8 µM | TGI (NCI-H460 lung): > 100 µM | TGI (KM12 colon): > 100 µM | TGI (ACHN renal): 12.6 µM

C=CCCCCCCCCCOC1C=CC(OC(C)=O)C(COC(C)=O)O1 (stereo not given)
TGI (U251 CNS): > 100 µM | TGI (NCI/ADR-RES ovarian): > 100 µM | TGI (SK-MEL-28 melanoma): > 100 µM | TGI (OVCAR-3 ovarian): > 100 µM | TGI (EKVX NSCLC): > 100 µM | TGI (SF-539 CNS): > 100 µM | TGI (M14 melanoma): 88.9 µM | TGI (HCC-2998 colon): > 100 µM | TGI (OVCAR-8 ovarian): 43.4 µM | TGI (SK-MEL-2 melanoma): > 100 µM | TGI (TK-10 renal): > 100 µM | TGI (HL-60(TB) leukemia): > 100000 nM | TGI (CCRF-CEM leukemia): > 100 µM | TGI (UO-31 renal): > 100 µM | TGI (HCT-116 colon): > 100 µM | TGI (MOLT-4 leukemia): 86 µM | TGI (LOX IMVI melanoma): > 100 µM | TGI (SF-295 CNS): > 100 µM | TGI (MALME-3M melanoma): > 100 µM | TGI (RPMI-8226 leukemia): 84.6 µM | TGI (NCI-H23 lung): > 100 µM | TGI (NCI-H226 lung): > 100 µM | TGI (NCI-H522 lung): > 100 µM | TGI (OVCAR-4 ovarian): > 100 µM | TGI (PC-3 prostate): > 100 µM | TGI (SK-OV-3 ovarian): > 100 µM | TGI (MDA-N): > 100 µM | TGI (SR leukemia): > 100000 nM | TGI (BT-549 breast): > 100 µM | TGI (COLO 205 colon): > 100 µM | TGI (SN12C renal): > 100 µM | TGI (HCT-15 colon): > 100 µM | TGI (SNB-19 CNS): > 100 µM | TGI (IGROV1 ovarian): > 100 µM | TGI (UACC-257 melanoma): 95.8 µM | TGI (OVCAR-5 ovarian): > 100 µM | TGI (MCF7 breast): > 100 µM | TGI (UACC-62 melanoma): > 100 µM | TGI (MDA-MB-435): > 100 µM | TGI (HOP-62 NSCLC): > 100 µM | TGI (MDA-MB-231 breast): > 100 µM | TGI (RXF 393 renal): > 100 µM | TGI (A498 renal): > 100 µM | TGI (SW-620 colon): > 100 µM | TGI (T-47D breast): > 100 µM | TGI (HOP-92 NSCLC): > 100 µM | TGI (CAKI-1 renal): > 100 µM | TGI (HT29 colon): 48.1 µM | TGI (DU-145 prostate): > 100 µM | TGI (SK-MEL-5 melanoma): > 100 µM | TGI (HS 578T breast): 63 µM | TGI (786-0 renal): > 100 µM | TGI (A549 NSCLC): > 100 µM | TGI (SF-268 CNS): > 100 µM | TGI (K-562 leukemia): 17.4 µM | TGI (NCI-H460 lung): > 100 µM | TGI (KM12 colon): > 100 µM | TGI (ACHN renal): > 100 µM
